Drawing on US12448392B2, “Spiropiperidine derivatives” (89BIO LTD, priority 2016, dated 2025), this text covers IC50 for 28 molecules.

The structures appear in SMILES notation. Counter-ions that a name gives are not always drawn.

For the first assay, the target named is T1, recombinant human baculovirus-expressed GST-tagged FASN (Homo sapiens, UniProt P49327).
T1 construct: GST
T1 sequence (P49327 whole entry): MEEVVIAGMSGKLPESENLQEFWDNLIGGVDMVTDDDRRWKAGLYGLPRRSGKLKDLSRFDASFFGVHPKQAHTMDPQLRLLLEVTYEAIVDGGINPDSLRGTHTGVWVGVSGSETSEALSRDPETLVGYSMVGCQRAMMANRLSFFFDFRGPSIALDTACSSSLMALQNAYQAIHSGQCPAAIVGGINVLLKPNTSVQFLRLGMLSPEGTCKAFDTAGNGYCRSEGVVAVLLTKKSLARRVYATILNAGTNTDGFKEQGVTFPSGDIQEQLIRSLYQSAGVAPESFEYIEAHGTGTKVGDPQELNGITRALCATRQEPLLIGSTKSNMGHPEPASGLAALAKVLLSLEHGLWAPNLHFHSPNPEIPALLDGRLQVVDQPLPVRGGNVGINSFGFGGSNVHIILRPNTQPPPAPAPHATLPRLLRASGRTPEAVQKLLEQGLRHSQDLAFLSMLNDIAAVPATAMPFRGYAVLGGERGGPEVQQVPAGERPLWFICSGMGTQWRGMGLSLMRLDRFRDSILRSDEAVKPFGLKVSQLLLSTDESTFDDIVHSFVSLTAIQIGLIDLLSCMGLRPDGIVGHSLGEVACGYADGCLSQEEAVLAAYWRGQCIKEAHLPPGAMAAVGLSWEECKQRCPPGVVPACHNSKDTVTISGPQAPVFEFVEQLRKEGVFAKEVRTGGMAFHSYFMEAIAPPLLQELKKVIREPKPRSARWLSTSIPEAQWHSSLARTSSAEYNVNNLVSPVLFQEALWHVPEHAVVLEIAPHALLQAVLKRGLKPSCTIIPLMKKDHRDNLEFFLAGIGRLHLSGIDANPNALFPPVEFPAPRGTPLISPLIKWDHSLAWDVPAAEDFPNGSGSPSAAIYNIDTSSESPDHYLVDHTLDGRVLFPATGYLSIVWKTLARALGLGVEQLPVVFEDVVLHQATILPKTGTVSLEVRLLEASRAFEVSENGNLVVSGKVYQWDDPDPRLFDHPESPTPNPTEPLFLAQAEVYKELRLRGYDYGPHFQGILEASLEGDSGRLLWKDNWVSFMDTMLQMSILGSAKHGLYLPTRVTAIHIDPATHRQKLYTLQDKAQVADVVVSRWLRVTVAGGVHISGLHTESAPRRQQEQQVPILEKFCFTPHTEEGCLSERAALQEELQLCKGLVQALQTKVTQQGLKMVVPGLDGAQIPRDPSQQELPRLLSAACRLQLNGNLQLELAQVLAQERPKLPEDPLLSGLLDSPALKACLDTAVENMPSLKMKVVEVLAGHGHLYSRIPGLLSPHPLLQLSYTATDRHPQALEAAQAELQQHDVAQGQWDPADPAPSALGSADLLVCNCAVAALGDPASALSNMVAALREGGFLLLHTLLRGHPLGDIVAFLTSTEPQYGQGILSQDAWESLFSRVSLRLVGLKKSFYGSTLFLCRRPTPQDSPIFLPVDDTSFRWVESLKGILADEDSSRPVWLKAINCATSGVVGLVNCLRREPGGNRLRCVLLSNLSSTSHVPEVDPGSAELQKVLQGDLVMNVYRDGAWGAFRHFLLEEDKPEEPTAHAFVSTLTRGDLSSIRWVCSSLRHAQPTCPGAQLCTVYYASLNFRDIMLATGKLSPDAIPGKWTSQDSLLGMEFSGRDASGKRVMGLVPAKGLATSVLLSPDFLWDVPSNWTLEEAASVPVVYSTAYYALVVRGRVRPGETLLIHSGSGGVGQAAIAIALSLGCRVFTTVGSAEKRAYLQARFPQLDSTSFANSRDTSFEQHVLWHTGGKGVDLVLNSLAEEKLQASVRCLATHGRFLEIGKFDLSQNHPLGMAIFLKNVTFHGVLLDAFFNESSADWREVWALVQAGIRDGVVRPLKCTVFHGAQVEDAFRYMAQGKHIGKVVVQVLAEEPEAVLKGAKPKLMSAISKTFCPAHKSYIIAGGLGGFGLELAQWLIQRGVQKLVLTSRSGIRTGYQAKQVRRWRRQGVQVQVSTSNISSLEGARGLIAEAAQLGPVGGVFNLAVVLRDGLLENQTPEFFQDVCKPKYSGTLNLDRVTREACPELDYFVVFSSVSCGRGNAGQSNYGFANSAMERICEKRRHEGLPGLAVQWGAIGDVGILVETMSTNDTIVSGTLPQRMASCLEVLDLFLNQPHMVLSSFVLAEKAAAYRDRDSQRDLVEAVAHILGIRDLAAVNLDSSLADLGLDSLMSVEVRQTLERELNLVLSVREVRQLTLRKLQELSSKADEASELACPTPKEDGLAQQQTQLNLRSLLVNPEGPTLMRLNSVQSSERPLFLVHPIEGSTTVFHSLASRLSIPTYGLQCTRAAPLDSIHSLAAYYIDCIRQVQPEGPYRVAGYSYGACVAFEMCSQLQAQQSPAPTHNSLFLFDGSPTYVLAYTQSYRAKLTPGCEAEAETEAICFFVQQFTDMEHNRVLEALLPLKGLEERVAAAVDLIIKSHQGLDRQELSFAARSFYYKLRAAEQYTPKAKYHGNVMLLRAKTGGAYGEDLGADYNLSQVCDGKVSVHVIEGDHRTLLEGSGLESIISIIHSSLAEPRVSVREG
Put plainly: biochemical.
Settings: not given
Broadly, the IC50 is the concentration that inhibits the measured activity by half. With `Cc1nccc2cc(-c3ccc4c(c3)COC3(CCN(C(N)=O)CC3)O4)ccc12` [Example 194, 6-(1-Methyl-6-isoquinolyl)spiro[4H-1,3-benzodioxine-2,4′-piperidine]-1′-carboxamide], the IC50 lay within 0.1 to 0.999 µM. On the same count and under the same terms, in the case of `CONC(=O)N1CCC2(CC1)OCc1cc(-c3ccc4c(C)nccc4c3)ccc1O2` [Example 195, N-methoxy-6-(1-methyl-6-isoquinolyl)spiro[4H-1,3-benzodioxine-2,4′-piperidine]-1′-carboxamide] it was 0.001 to 0.099 µM; in that of `CCONC(=O)N1CCC2(CC1)OCc1cc(-c3ccc4c(C)nccc4c3)ccc1O2` [Example 196, N-Ethoxy-6-(1-methyl-6-isoquinolyl)spiro[4H-1,3-benzodioxine-2,4′-piperidine]-1′-carboxamide], 0.001 to 0.099 µM.

Take `CCNC(=O)N1CCC2(CC1)OCc1cc(-c3ccc4c(C)nccc4c3)ccc1O2` [Example 197, N-ethyl-6-(1-methyl-6-isoquinolyl)spiro[4H-1,3-benzodioxine-2,4′-piperidine]-1′-carboxamide]: the IC50 was in the range of 0.001 to 0.099 µM. On the same count and under the same terms, in the case of `CCOC(=O)N1CCC2(CC1)OCc1cc(-c3ccc4cnc(Cl)cc4c3)ccc1O2` [Example 198, Ethyl 6-(3-chloro-6-isoquinolyl)spiro[4H-1,3-benzodioxine-2,4′-piperidine]-1′-carboxylate] it was 1 to 10 µM. On the same count and under the same terms, in the case of `Cc1nccc2cc(-c3ccc4c(c3)COC3(CCN(C(=O)NO)CC3)O4)ccc12` [Example 199, 6-(1-Methyl-6-isoquinolyl)spiro[4H-1,3-benzodioxine-2,4′-piperidine]-1′-carbohydroxamic acid] it was 1 to 10 µM. Still for that read-out and setting: in the case of `CCOC(=O)N1CCC2(CC1)OCc1cc(-c3ccc4cnc(C)cc4c3)ccc1O2` [Example 200, Ethyl 6-(3-methyl-6-isoquinolyl)spiro[4H-1,3-benzodioxine-2,4′-piperidine]-1′-carboxylate] it was 1 to 10 µM.

Consider `Cc1cc2cc(-c3ccc4c(c3)COC3(CCN(C(N)=O)CC3)O4)ccc2cn1` [Example 201, 6-(3-Methyl-6-isoquinolyl)spiro[4H-1,3-benzodioxine-2,4′-piperidine]-1′-carboxamide], for which the concentration for half-maximal inhibition (IC50) fell in the range of 1 to 10 µM. Same read-out and setting: in the case of `CCNC(=O)N1CCC2(CC1)OCc1cc(-c3ccc4cnc(C)cc4c3)ccc1O2` [Example 202, N-Ethyl-6-(3-methyl-6-isoquinolyl)spiro[4H-1,3-benzodioxine-2,4′-piperidine]-1′-carboxamide] it was 0.001 to 0.099 µM; in that of `CCONC(=O)N1CCC2(CC1)OCc1cc(-c3ccc4cnc(C)cc4c3)ccc1O2` [Example 203, N-Ethoxy-6-(3-methyl-6-isoquinolyl)spiro[4H-1,3-benzodioxine-2,4′-piperidine]-1′-carboxamide], 0.001 to 0.099 µM. Still for that read-out and setting: in the case of `Cc1cc2cc(-c3ccc4c(c3)COC3(CCN(C(=O)NO)CC3)O4)ccc2cn1` [Example 204, 6-(3-Methyl-6-isoquinolyl)spiro[4H-1,3-benzodioxine-2,4′-piperidine]-1′-carbohydroxamic acid] it was 0.1 to 0.999 µM; in that of `CONC(=O)N1CCC2(CC1)OCc1cc(-c3ccc4cnc(C)cc4c3)ccc1O2` [Example 205, N-Methoxy-6-(3-methyl-6-isoquinolyl)spiro[4H-1,3-benzodioxine-2,4′-piperidine]-1′-carboxamide], 0.001 to 0.099 µM.

The assay is the same for the next values; noted with them: 5 nM FASN, 150 μM NADPH, 10 μM acetyl-CoA, 25 μM malonyl-CoA, 90 minutes incubation; read-out: IC50 data for Compounds of Formula I, Activity.
In the case of `Cc1nccc2cc(-c3ccc4c(c3)CCC3(CCN(C(=O)NO)CC3)O4)ccc12` [Example 189, 6-(1-Methyl-6-isoquinolyl)spiro[chromane-2,4′-piperidine]-1′-carbohydroxamic acid], the IC50 was in the range of 1 to 10 µM. On the same count and under the same terms, in the case of `Cc1c(-c2ccc3c(c2)CCC2(CCN(C(N)=O)CC2)O3)cnc2ccccc12` [Example 190, 6-(4-methyl-3-quinolyl)spiro[chromane-2,4′-piperidine]-1′-carboxamide] it was 0.001 to 0.099 µM.

For the molecule `Cc1c(-c2ccc3c(c2)CCC2(CCN(C(=O)NO)CC2)O3)cnc2ccccc12` [Example 191, 6-(4-Methyl-3-quinolyl)spiro[chromane-2,4′-piperidine]-1′-carbohydroxamic acid], the IC50 lay within 0.1 to 0.999 µM. The same measure, in the same setting: in the case of `CONC(=O)N1CCC2(CCc3cc(-c4cnc5ccccc5c4C)ccc3O2)CC1` [Example 192, N-Methoxy-6-(4-methyl-3-quinolyl)spiro[chromane-2,4′-piperidine]-1′-carboxamide] it was 0.001 to 0.099 µM. On the same count and under the same terms, in the case of `Cc1c(-c2ccc3c(c2)CCC2(CCN(C(=O)NOC(C)C)CC2)O3)cnc2ccccc12` [Example 193, N-isopropoxy-6-(4-methyl-3-quinolyl)spiro[chromane-2,4′-piperidine]-1′-carboxamide] it was 0.001 to 0.099 µM; in that of `Cc1cc2cc(-c3ccc4c(c3)CCC3(CCN(C(N)=O)CC3)O4)ccc2cn1` [Example 206, 6-(3-Methyl-6-isoquinolyl)spiro[chromane-2,4′-piperidine]-1′-carboxamide], 1 to 10 µM; in that of `CCONC(=O)N1CCC2(CCc3cc(-c4ccc5cnc(C)cc5c4)ccc3O2)CC1` [Example 207, N-Ethoxy-6-(3-methyl-6-isoquinolyl)spiro[chromane-2,4′-piperidine]-1′-carboxamide], 0.001 to 0.099 µM.

As for `CCNC(=O)N1CCC2(CCc3cc(-c4ccc5cnc(C)cc5c4)ccc3O2)CC1` [Example 208, N-Ethyl-6-(3-methyl-6-isoquinolyl)spiro[chromane-2,4′-piperidine]-1′-carboxamide], the IC50 lay in the range of 0.1 to 0.999 µM.

Consider `CONC(=O)N1CCC2(CCc3cc(-c4ccc5cnc(C)cc5c4)ccc3O2)CC1` [Example 209, N-Methoxy-6-(3-methyl-6-isoquinolyl)spiro[chromane-2,4′-piperidine]-1′-carboxamide], for which the IC50 was 0.001 to 0.099 µM. With `CONC(=O)N1CCC2(CCc3cc(-c4ccc5cccnc5c4OC)ccc3O2)CC1` [Example 210, N-Methoxy-6-(8-methoxy-7-quinolyl)spiro[chromane-2,4′-piperidine]-1′-carboxamide], the concentration for half-maximal inhibition (IC50) lay in the range of 0.001 to 0.099 µM. For the molecule `CCONC(=O)N1CCC2(CCc3cc(-c4ccc5cccnc5c4OC)ccc3O2)CC1` [Example 211, N-Ethoxy-6-(8-methoxy-7-quinolyl)spiro[chromane-2,4′-piperidine]-1′-carboxamide], the IC50 lay within 0.001 to 0.099 µM. On the same count and under the same terms, in the case of `Cc1c(-c2ccc3c(c2)C(=O)CC2(CCN(C(N)=O)CC2)O3)ccc2cccnc12` [Example 212, 6-(8-methyl-7-quinolyl)-4-oxo-spiro[chromane-2,4′-piperidine]-1′-carboxamide] it was 0.1 to 0.999 µM; in that of `Cc1c(-c2ccc3c(c2)C(O)CC2(CCN(C(N)=O)CC2)O3)ccc2cccnc12` (stereo not shown) [Example 213, 4-Hydroxy-6-(8-methyl-7-quinolyl)spiro[chromane-2,4′-piperidine]-1′-carboxamide], 0.1 to 0.999 µM; in that of `CCC(=O)N1CCC2(CCc3cc(-c4ccccn4)ccc3O2)CC1` [Example 215, 1-[6-(2-Pyridyl)spiro[chromane-2,4′-piperidine]-1′-yl]propan-1-one, HCl], 1 to 10 µM. Same read-out and setting: in the case of `O=C(C1CC1)N1CCC2(CCc3cc(-c4ccccn4)ccc3O2)CC1` [Example 216, Cyclopropyl-[6-(2-pyridyl)spiro[chromane-2,4′-piperidine]-1′-yl]methanone, HCl] it was 1 to 10 µM; in that of `O=C([C@H]1CCCO1)N1CCC2(CCc3cc(-c4ccccn4)ccc3O2)CC1` [Example 217, [6-(2-Pyridyl)spiro[chromane-2,4′-piperidine]-1′-yl]-[(2R)-tetrahydrofuran-2-yl]methanone, HCl], 1 to 10 µM.
